This passage reports RAD51 activity, leakage from droplet and Kd results from paper PMC5287478, “Quantitative Affinity Determination by Fluorescence Anisotropy Measurements of Individual Nanoliter Droplets” (Analytical Chemistry, 2017).

In one data set the test system is RAD51. As to conditions: 30–35 amino acid peptide corresponding to BRC repeat 4; cited from earlier work. The text has this:
We explore the potential of single droplet anisotropy measurements for the study of structure–activity relationships for protein–protein interactions in nanoliter volumes. Specifically, we address the interactions of the BRC4 peptide, a reductionist model of the recombination mediator BRCA2, with mutants of an archaeal surrogate of the recombinase RAD51.[10] […] Inhibit ...

The nature of data set [1]: Retention of BRC4fl in droplets (leakage into oil phase). Format: physicochemical. As to conditions: HFE 7500 with 1% w/v AZ2C fluorosurfactant, approx. 1 minute to detection point. The procedure:
AZ2C fluoroLsurfactant (made inLhouse according to a previously published method).4 The time to reach the detection point (approx. 1 minute) was sufficient for significant leakage of BRC4fl from the droplet. Addition of additives such as BSA has been found effective in increasing the effective solubility of reagents.5 BSA was titrated using the same droplet titration technique up to 1.2%. The fluorescence intensity measured at the detection point was […]
increase retention of the fluorophore in the droplet. Anisotropy reached a steadyLstate value when BSA was present at concentrations above 0.2%. Although the linear increase of […]
presence of BSA concentrations above 1% made droplet formation more difficult, because of the increased viscosity of the aqueous phase and the formation of BSA vesicles. Therefore 1% BSA was chosen as a compromise between these effects and all experiments were […]
Figure S4. Influence of BSA concentration on the retention of BRC4fl within the droplet. (A) Intensity is linearly increasing with BSA concentration. (B) Fluorescence anisotropy converges towards a steadyLstate value above a threshold concentration of BSA

The next data set concerns the target T1, HumRadA18 (Pyrococcus furiosus, UniProt O74036, D220A/D267M/E219S/H199N/H264F/I169M/I200V/I222M/K198D/K221M/K223V/K263R/L213Q/L225S/L274E/Q216Y/V168A/V202Y/V215L/V232Y/W170Y/Y201A/Y275F).
T1 construct: made in house; host or cells: E. coli BL21(DE3) pUBS520, pBAT plasmid
The data set is described as follows: Competition assay with BRC4^fl in nanoliter droplets. Format: binding.

As for `CC[C@H](C)[C@H](NC(=O)[C@H](CCCCN)NC(=O)[C@@H](NC(=O)[C@H](CCCCN)NC(=O)[C@H](CCCCN)NC(=O)CNC(=O)[C@H](CO)NC(=O)[C@H](C)NC(=O)[C@@H](NC(=O)[C@H](Cc1c[nH]cn1)NC(=O)[C@H](Cc1ccccc1)NC(=O)CNC(=O)[C@H](CC(C)C)NC(=O)[C@H](CC(C)C)NC(=O)[C@@H](NC(=O)[C@@H]1CCCN1C(=O)[C@H](CCC(=O)O)NC(=O)[C@H](CCCCN)NC(=O)[C@H](CSC1CC(=O)N(c2ccc3c(c2)C(=O)OC32c3ccc(O)cc3Oc3cc(O)ccc32)C1=O)NC(C)=O)[C@@H](C)O)[C@@H](C)O)C(C)C)C(=O)N[C@@H](C)C(=O)N[C@@H](CCCCN)C(=O)N[C@@H](CCC(=O)O)C(=O)N[C@@H](CO)C(=O)N[C@@H](CC(C)C)C(=O)N[C@@H](CC(=O)O)C(=O)N[C@@H](CCCCN)C(=O)N[C@H](C(=O)N[C@@H](CCCCN)C(=O)N[C@@H](CC(N)=O)C(=O)N[C@@H](CC(C)C)C(=O)N[C@@H](Cc1ccccc1)C(=O)N[C@@H](CC(=O)O)C(=O)N[C@@H](CCC(=O)O)C(=O)N[C@@H](CCCCN)C(=O)N[C@@H](CCC(=O)O)C(=O)N[C@@H](CCC(N)=O)C(N)=O)C(C)C` (stereo partly drawn) [BRC4], the RAD51 activity result in the data set with RAD51 is recorded as “block RAD51 activity”. Also, in data set [1], the leakage from droplet result is given as “high propensity for leakage”. Besides, at HumRadA18, binding was characterised by a dissociation constant (Kd) of 45 nM.

The term Kd denotes the equilibrium constant for the complex coming apart. A high value points to weaker binding.
